Assays:
[1] = target: Core antigen (Hepatitis B virus) (UniProt Q03732); assay: Inhibition of capsid protein in Hepatitis B virus infected in human HepG2.2.15 cells assessed as reduction in viral DNA level supplemented with fresh medium containing compound every 2 days and measured after 6 days by RT-PCR analysis relative to control; format: cell-based; parameters: concentration or dose not given beside the values; conditions: concentration not given here
[2] = Cytotoxicity against human HepG2.2.15 cells assessed as cell viability measured after 72 hrs by MTT assay; format: cell-based, HepG2 2.2.15
[3] = Selectivity index, ratio of CC50 for human HepG2.2.15 cells to IC50 for capsid protein in Hepatitis B virus infected in human HepG2.2.15 cells assessed as reduction in viral DNA level; format: toxicity, cell-based; conditions: read-out: Ratio CC50/IC50
[4] = target: Core antigen (Hepatitis B virus) (UniProt Q03732); assay: Inhibition of capsid protein in wild type Hepatitis B virus infected in human HepG2.2.15 cells assessed as reduction of viral DNA level at 4 uM measured after 72 hrs by PCR analysis relative to control; format: cell-based
[5] = Selectivity index, ratio of CC50 for human HepG2.2.15 cells to IC50 for capsid protein in lamivudine/entecavir-resistant Hepatitis B virus harboring rtL180M/rtM204V/rt184L mutant infected in human HepG2.2.15 cells assessed as reduction in viral DNA level; format: toxicity, cell-based; conditions: read-out: Ratio CC50/IC50
[6] = target: Core antigen (Hepatitis B virus) (UniProt Q03732); assay: Inhibition of capsid protein in lamivudine/entecavir-resistant Hepatitis B virus harboring rtL180M/rtM204V/rt184L mutant infected in human HepG2.2.15 cells assessed as reduction in viral DNA level at 4 uM measured after 72 hrs by PCR analysis relative to control; format: cell-based
[7] = target: Core antigen (Hepatitis B virus) (UniProt Q03732); assay: Inhibition of capsid protein in lamivudine/entecavir-resistant Hepatitis B virus harboring rtL180M/rtM204V/rt184L mutant infected in human HepG2.2.15 cells assessed as reduction in viral DNA level at 100 uM measured after 72 hrs by PCR analysis relative to control; format: cell-based
[8] = target: Core antigen (Hepatitis B virus) (UniProt Q03732); assay: Inhibition of capsid protein in wild type Hepatitis B virus infected in human HepG2.2.15 cells assessed as reduction in viral DNA level at 100 uM measured after 72 hrs by PCR analysis relative to control; format: cell-based
[9] = target: Core antigen (Hepatitis B virus) (UniProt Q03732); assay: Inhibition of capsid protein in lamivudine/entecavir-resistant Hepatitis B virus harboring rtL180M/rtM204V/rt184L mutant infected in human HepG2.2.15 cells assessed as reduction in viral DNA level at 10 uM measured after 72 hrs by PCR analysis relative to control; format: cell-based
[10] = target: Core antigen (Hepatitis B virus) (UniProt Q03732); assay: Inhibition of capsid protein in wild type Hepatitis B virus infected in human HepG2.2.15 cells assessed as reduction of viral DNA level at 10 uM measured after 72 hrs by PCR analysis relative to control; format: cell-based

Chain of Core antigen (Hepatitis B virus) (Q03732 as listed by the source): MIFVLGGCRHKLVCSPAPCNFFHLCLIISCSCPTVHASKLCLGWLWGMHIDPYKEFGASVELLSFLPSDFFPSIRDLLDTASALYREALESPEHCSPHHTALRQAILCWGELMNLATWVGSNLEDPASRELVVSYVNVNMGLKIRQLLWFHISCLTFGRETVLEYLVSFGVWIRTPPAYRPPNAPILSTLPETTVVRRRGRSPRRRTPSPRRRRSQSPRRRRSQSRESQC

Structure (SMILES) | inhibition [1] | CC50 at 72 h [2] | further results
COc1ccc(C(C)=O)cc1CSc1nc2ccccc2c(=O)n1Cc1cccs1 | 47.1% | 71.5 µM | selectivity ratio [3]: 17.6
COc1ccc(C(C)=O)cc1CSc1nc2ccc(C)cc2c(=O)n1Cc1cccs1 | 56.1% | > 100 µM | –
O=c1c2cc(Br)ccc2nc(SCc2ccccc2)n1Cc1cccs1 | 16.7% | > 100 µM | –
O=c1c2cc(O)ccc2nc(SCc2ccccc2)n1Cc1cccs1 | 5.62% | > 100 µM | –
COc1ccc(C(C)=O)cc1CSc1nc2ccc(O)cc2c(=O)n1Cc1cccs1 | 3.26% | > 100 µM | –
CCN(CC)CCOc1ccc2nc(SCc3cc(C(C)=O)ccc3OC)n(Cc3cccs3)c(=O)c2c1 | 42% | 8.76 µM | –
O=c1c2cc(I)ccc2nc(SCc2ccccc2)n1Cc1cccs1 | 1.87% | > 100 µM | –
COc1ccc(C(C)=O)cc1CSc1nc2ccc(I)cc2c(=O)n1Cc1cccs1 | 45.4% | 81.1 µM | –
O=c1c2ccccc2nc(SCc2ccccc2)n1Cc1cccs1 | 11% | > 100 µM | –
COc1ccccc1CSc1nc2ccc(F)cc2c(=O)n1Cc1cccs1 | 79.6% | > 100 µM | selectivity ratio [3]: > 40.5
CCN(CC)CCOc1ccc2nc(SCc3ccccc3OC)n(Cc3cccs3)c(=O)c2c1 | 76% | 10.1 µM | selectivity ratio [3]: 5.25
Cc1ccc2nc(SCc3ccccc3)n(Cc3cccs3)c(=O)c2c1 | 13.8% | > 100 µM | –
CCN(CC)CCOc1ccc2nc(SCc3ccccc3)n(Cc3cccs3)c(=O)c2c1 | 98.4% | 15.8 to 18 µM | inhibition [4]: 96.1%; selectivity ratio [5]: 21.4; selectivity ratio [3]: 22.2; inhibition [6]: 94%
COc1ccccc1CSc1nc2ccc(O)cc2c(=O)n1Cc1cccs1 | 0.59% | > 100 µM | –
COc1ccccc1CSc1nc2ccc(Br)cc2c(=O)n1Cc1cccs1 | 64.2% | > 100 µM | –
COc1ccc(C(C)=O)cc1CSc1nc2ccc(Cl)cc2c(=O)n1Cc1cccs1 | 40.7% | 74.6 µM | –
COc1ccc(C(C)=O)cc1CSc1nc2ccc(Br)cc2c(=O)n1Cc1cccs1 | 46% | > 100 µM | –
COc1ccccc1CSc1nc2ccccc2c(=O)n1Cc1cccs1 | 76.3% | > 100 µM | selectivity ratio [3]: > 35.6
Nc1ccn([C@@H]2CS[C@H](CO)O2)c(=O)n1 [LAMIVUDINE] | 94.3% | > 100 µM | inhibition [7]: 17.7%; inhibition [8]: 90.7%; selectivity ratio [5]: < 1; selectivity ratio [3]: > 1000
CN(C)CCOc1ccc2nc(SCc3ccccc3)n(Cc3cccs3)c(=O)c2c1 | 83.3% | 21.1 to 26.7 µM | inhibition [4]: 82%; selectivity ratio [5]: 14.1; selectivity ratio [3]: 13.7; inhibition [6]: 80.9%
O=c1c2cc(Cl)ccc2nc(SCc2ccccc2)n1Cc1cccs1 | 16.1% | > 100 µM | –
COc1ccc(C(C)=O)cc1CSc1nc2ccc(F)cc2c(=O)n1Cc1cccs1 | 30.7% | 89 µM | –
COc1ccc(C(C)=O)cc1CSc1nc2ccc(OCCN(C)C)cc2c(=O)n1Cc1cccs1 | 33.9% | 18 µM | –
COc1ccccc1CSc1nc2ccc(C)cc2c(=O)n1Cc1cccs1 | 69.4% | > 100 µM | –
COc1ccccc1CSc1nc2ccc(I)cc2c(=O)n1Cc1cccs1 | 65.9% | > 100 µM | –
C=C1[C@H](CO)[C@@H](O)C[C@@H]1n1cnc2c(=O)[nH]c(N)nc21 | – | – | inhibition [9]: 22.6%; inhibition [10]: 98.1%
COc1ccccc1CSc1nc2ccc(Cl)cc2c(=O)n1Cc1cccs1 | 63.3% | > 100 µM | –
O=c1c2cc(F)ccc2nc(SCc2ccccc2)n1Cc1cccs1 | 9.53% | > 100 µM | –
COc1ccccc1CSc1nc2ccc(OCCN(C)C)cc2c(=O)n1Cc1cccs1 | 53.9% | 14.7 µM | –

— ChEMBL document CHEMBL4350975, “Assessment of quinazolinone derivatives as novel non-nucleoside hepatitis B virus inhibitors” (Eur J Med Chem, 2019)
